From the kinase profiling compilation of Christmann-Franck et al. (2016)
Several values for one entry are separate records, joined by “and”; a condition that tells them apart may be missing. Identical values can stand only once.

How the values were obtained:
Test in all cases: radiometric filter-binding kinase assay, Kinase HotSpot
Conditions in all cases: compound 0.5 µM; ATP 10 µM
PRKG2 (human) = PRKG2 (human) (UniProt Q13237)
MARK4 (human) = MARK4 (human) (UniProt Q96L34)
DYRK1A (human) = DYRK1A (human) (UniProt Q13627)
CLK1 (human) = CLK1 (human) (UniProt P49759)
TEK (human) = TEK (human) (UniProt Q02763)
AXL (human) = AXL (human) (UniProt P30530)
GSG2 (human) = GSG2 (human) (UniProt Q8TF76)
TEC (human) = TEC (human) (UniProt P42680)
MAP3K3 (human) = MAP3K3 (human) (UniProt Q99759)
MAPK11 (human) = MAPK11 (human) (UniProt Q15759)
MAPK11 (human), sequence (Q15759 whole entry, looked up): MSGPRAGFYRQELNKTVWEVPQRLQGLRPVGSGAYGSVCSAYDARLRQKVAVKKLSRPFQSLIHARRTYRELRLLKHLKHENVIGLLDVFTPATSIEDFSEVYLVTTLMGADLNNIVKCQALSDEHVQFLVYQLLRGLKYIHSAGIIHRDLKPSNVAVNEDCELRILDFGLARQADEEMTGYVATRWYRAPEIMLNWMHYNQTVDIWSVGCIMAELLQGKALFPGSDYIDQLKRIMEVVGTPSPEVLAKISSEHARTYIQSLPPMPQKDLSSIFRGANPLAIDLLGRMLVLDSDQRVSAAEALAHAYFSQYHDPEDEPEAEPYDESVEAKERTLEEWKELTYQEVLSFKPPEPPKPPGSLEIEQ

BMX (human) = BMX (human) (UniProt P51813)
CSF1R (human) = CSF1R (human) (UniProt P07333)
CSNK1D (human) = CSNK1D (human) (UniProt P48730)
PRKG1 (human) = PRKG1 (human) (UniProt Q13976)
CHEK2 (human) = CHEK2 (human) (UniProt O96017)
CHEK2 (human), sequence (O96017 whole entry, looked up): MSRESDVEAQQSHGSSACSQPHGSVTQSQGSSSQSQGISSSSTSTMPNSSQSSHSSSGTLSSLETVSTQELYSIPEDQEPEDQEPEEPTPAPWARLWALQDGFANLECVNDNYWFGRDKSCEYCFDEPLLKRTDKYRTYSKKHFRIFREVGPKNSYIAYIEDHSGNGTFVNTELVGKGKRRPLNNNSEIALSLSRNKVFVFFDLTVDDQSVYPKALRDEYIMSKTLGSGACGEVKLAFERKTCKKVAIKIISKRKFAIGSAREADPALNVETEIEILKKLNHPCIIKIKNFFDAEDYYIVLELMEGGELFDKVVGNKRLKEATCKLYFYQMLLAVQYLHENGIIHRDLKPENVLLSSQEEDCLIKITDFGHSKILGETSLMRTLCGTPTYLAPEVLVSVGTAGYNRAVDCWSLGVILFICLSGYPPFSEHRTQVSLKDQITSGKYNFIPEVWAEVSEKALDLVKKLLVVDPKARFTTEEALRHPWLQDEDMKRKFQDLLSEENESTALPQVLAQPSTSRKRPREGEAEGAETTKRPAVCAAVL

MAP4K2 (human) = MAP4K2 (human) (UniProt Q12851)
MAP4K2 (human), sequence (Q12851 whole entry, looked up): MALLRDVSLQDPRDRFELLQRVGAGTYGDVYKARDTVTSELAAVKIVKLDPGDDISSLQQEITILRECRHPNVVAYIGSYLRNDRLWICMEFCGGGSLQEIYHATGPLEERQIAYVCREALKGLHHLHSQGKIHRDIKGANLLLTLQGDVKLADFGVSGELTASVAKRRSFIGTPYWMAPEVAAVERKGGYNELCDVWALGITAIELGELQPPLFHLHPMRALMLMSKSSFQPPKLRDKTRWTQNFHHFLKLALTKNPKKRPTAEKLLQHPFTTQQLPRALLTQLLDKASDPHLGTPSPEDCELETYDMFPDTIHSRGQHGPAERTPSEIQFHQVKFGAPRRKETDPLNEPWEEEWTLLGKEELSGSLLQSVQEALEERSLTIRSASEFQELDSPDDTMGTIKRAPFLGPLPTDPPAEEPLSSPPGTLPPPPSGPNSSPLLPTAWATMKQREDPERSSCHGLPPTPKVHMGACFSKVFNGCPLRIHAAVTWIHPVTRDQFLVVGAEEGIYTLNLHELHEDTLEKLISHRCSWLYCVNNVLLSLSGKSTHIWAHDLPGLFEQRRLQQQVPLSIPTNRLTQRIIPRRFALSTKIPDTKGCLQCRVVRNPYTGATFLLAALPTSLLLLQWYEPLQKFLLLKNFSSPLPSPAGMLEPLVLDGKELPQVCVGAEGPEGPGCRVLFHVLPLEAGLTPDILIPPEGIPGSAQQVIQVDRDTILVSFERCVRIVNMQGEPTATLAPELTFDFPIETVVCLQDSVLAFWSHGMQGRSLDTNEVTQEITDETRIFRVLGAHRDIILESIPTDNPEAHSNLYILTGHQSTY

NEK2 (human) = NEK2 (human) (UniProt P51955)
PAK1 (human) = PAK1 (human) (UniProt Q13153)
EPHB4 (human) = EPHB4 (human) (UniProt P54760)
EPHB4 (human), sequence (P54760 whole entry, looked up): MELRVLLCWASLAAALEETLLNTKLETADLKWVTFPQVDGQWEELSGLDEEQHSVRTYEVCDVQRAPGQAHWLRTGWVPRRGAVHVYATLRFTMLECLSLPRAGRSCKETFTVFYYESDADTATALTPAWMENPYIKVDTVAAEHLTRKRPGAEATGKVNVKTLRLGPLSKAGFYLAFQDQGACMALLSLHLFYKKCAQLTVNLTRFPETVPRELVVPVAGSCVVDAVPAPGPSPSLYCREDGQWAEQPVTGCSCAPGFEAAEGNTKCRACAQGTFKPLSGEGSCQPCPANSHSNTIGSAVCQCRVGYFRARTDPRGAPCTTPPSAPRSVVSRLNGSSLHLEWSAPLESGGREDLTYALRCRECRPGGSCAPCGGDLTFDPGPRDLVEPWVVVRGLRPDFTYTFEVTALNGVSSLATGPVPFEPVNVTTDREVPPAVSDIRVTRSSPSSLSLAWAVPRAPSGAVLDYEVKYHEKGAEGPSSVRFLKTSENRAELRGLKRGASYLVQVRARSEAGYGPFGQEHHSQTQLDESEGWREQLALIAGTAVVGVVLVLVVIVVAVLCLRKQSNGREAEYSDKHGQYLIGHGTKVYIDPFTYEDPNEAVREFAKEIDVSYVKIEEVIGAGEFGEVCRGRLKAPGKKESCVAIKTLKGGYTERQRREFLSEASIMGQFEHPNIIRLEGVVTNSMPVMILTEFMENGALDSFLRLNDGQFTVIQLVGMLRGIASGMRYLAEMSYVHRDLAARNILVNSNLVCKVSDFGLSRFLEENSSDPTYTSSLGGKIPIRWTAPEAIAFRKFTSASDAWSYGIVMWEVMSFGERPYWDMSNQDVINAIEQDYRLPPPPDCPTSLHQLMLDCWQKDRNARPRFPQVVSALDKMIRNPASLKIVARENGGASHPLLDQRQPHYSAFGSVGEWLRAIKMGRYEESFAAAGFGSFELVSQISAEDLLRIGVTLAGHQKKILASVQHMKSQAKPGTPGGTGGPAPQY

PRKCI (human) = PRKCI (human) (UniProt P41743)
[1] = target: JAK1 JH1 catalytic (human) (UniProt P23458)
DYRK2 (human) = DYRK2 (human) (UniProt Q92630)
PRKCE (human) = PRKCE (human) (UniProt Q02156)
CDK4 CCND1 (human) = CDK4 CCND1 (human) (UniProt P24385+P11802)
EPHB2 (human) = EPHB2 (human) (UniProt P29323)
EPHB2 (human), sequence (P29323 whole entry, looked up): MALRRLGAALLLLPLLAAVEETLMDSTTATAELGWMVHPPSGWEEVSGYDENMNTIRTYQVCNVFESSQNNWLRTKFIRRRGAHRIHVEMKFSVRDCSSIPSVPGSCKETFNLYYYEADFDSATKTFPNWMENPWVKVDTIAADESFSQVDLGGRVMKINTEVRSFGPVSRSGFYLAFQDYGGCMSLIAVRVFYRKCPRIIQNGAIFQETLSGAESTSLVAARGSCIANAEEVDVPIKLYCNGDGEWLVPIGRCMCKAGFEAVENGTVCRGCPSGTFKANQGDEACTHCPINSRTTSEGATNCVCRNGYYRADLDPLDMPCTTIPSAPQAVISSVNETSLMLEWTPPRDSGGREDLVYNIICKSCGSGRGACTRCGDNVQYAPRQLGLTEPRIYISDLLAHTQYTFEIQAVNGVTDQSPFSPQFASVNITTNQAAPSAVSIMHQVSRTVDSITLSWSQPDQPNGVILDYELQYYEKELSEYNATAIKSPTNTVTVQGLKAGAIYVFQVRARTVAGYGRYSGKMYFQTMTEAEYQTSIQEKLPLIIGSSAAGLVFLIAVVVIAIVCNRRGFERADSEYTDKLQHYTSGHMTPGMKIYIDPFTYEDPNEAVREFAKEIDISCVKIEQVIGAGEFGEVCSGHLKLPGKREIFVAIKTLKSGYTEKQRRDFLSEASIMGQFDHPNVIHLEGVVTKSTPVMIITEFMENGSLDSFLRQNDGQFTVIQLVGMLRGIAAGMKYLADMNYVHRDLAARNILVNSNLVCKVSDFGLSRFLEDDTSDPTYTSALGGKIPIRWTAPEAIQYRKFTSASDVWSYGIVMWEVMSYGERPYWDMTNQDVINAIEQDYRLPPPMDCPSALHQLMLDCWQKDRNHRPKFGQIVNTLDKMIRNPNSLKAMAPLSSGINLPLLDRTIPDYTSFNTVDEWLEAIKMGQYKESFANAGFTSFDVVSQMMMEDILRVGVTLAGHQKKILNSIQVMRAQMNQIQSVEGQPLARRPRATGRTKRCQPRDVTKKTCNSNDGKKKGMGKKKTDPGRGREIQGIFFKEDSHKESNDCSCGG

BRAF (human) = BRAF (human) (UniProt P15056)
CHUK (human) = CHUK (human) (UniProt O15111)
MST1R (human) = MST1R (human) (UniProt Q04912)
ABL2 (human) = ABL2 (human) (UniProt P42684)
JAK2 JH1 JH2 (human) = JAK2 JH1 JH2 (human) (UniProt O60674)
PRKX (human) = PRKX (human) (UniProt P51817)
IGF1R (human) = IGF1R (human) (UniProt P08069)
OXSR1 (human) = OXSR1 (human) (UniProt O95747)
CAMKK2 (human) = CAMKK2 (human) (UniProt Q96RR4)
ULK2 (human) = ULK2 (human) (UniProt Q8IYT8)
PBK (human) = PBK (human) (UniProt Q96KB5)
PBK (human), sequence (Q96KB5 whole entry, looked up): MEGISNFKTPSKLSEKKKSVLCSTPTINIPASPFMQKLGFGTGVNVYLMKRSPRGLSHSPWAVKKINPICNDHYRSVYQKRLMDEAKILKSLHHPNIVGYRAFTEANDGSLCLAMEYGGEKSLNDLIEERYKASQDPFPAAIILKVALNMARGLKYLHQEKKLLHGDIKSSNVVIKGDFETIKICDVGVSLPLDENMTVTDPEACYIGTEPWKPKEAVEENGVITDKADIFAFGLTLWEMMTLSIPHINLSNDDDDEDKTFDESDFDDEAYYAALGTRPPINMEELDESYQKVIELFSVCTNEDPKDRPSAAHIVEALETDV

PRKG2 (human), sequence (Q13237 whole entry, looked up): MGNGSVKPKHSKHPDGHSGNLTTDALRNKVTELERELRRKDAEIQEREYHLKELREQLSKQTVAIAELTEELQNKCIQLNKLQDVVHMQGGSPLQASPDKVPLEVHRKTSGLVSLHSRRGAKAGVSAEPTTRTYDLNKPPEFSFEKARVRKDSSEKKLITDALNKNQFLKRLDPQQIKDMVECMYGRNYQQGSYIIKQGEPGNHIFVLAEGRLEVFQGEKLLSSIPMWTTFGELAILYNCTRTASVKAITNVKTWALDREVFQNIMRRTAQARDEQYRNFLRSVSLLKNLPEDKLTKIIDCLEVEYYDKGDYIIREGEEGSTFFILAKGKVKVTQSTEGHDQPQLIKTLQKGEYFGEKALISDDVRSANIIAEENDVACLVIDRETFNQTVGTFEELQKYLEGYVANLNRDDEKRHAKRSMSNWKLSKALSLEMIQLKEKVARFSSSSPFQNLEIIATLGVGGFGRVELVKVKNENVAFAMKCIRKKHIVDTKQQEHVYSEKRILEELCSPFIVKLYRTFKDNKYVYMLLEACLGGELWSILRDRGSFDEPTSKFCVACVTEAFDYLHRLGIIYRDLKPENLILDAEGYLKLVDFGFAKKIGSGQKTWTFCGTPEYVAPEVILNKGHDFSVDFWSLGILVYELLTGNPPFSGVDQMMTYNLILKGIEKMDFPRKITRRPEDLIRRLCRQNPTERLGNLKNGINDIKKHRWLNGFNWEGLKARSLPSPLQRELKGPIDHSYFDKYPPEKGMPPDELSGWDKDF

SMILES	residual activity (PRKG2 (human)) [%]	residual activity (MARK4 (human)) [%]	residual activity (DYRK1A (human)) [%]	residual activity (CLK1 (human)) [%]	residual activity (TEK (human)) [%]	residual activity (AXL (human)) [%]	residual activity (GSG2 (human)) [%]	residual activity (TEC (human)) [%]	residual activity (MAP3K3 (human)) [%]	residual activity (MAPK11 (human)) [%]	residual activity (BMX (human)) [%]	residual activity (CSF1R (human)) [%]	residual activity (CSNK1D (human)) [%]	residual activity (PRKG1 (human))	residual activity (CHEK2 (human)) [%]	residual activity (MAP4K2 (human)) [%]	residual activity (NEK2 (human)) [%]	residual activity (PAK1 (human)) [%]	residual activity (EPHB4 (human)) [%]	residual activity (PRKCI (human)) [%]	also measured
Cn1sc(=O)n(Cc2ccccc2)c1=O	108	85.1	92.6	112	90.9	96.9	99	117	94.2	97.2	91.6	98.6	100	93.2% and 95.9%	108	119	99.7	94.1	100	95.2	residual activity [1]: 103%; residual activity (DYRK2 (human)): 104%; residual activity (PRKCE (human)): 94.8%; residual activity (CDK4 CCND1 (human)): 98.2%; residual activity (EPHB2 (human)): 88.5%; residual activity (BRAF (human)): 98.1%; residual activity (CHUK (human)): 96.2%; residual activity (MST1R (human)): 101%; residual activity (ABL2 (human)): 96.7%; residual activity (JAK2 JH1 JH2 (human)): 91.6%; residual activity (PRKX (human)): 102%; residual activity (IGF1R (human)): 97.1%; residual activity (OXSR1 (human)): 91.1%; residual activity (CAMKK2 (human)): 95.2%; residual activity (ULK2 (human)): 105%; residual activity (PBK (human)): 107%
O=C(Nc1cccc(Nc2cc(Nc3cccc(C(F)(F)F)c3)ncn2)c1)C1CC1	103	101	104	107	101	98.7	96.4	115	95.2	97.2	93.7	99.9	98.9	90.6% and 96.4%	99.5	116	99.5	96.6	97.8	98.1	residual activity [1]: 103%; residual activity (DYRK2 (human)): 99.9%; residual activity (PRKCE (human)): 89.2%; residual activity (CDK4 CCND1 (human)): 103%; residual activity (EPHB2 (human)): 88.6%; residual activity (BRAF (human)): 96.8%; residual activity (CHUK (human)): 95.6%; residual activity (MST1R (human)): 107%; residual activity (ABL2 (human)): 100%; residual activity (JAK2 JH1 JH2 (human)): 99.5%; residual activity (PRKX (human)): 107%; residual activity (IGF1R (human)): 105%; residual activity (OXSR1 (human)): 110%; residual activity (CAMKK2 (human)): 98.5%; residual activity (ULK2 (human)): 102%; residual activity (PBK (human)): 103%
CCN(CC)CCCCN1c2ccccc2Oc2ccc(Cl)cc21	94.4	97.2	104	110	103	95.2	104	157	103	103	104	97.8	105	91.3% and 98.8%	105	110	101	87.7	97.9	105	residual activity [1]: 105%; residual activity (DYRK2 (human)): 101%; residual activity (PRKCE (human)): 109%; residual activity (CDK4 CCND1 (human)): 107%; residual activity (EPHB2 (human)): 107%; residual activity (BRAF (human)): 98.8%; residual activity (CHUK (human)): 98.8%; residual activity (MST1R (human)): 112%; residual activity (ABL2 (human)): 101%; residual activity (JAK2 JH1 JH2 (human)): 104%; residual activity (PRKX (human)): 103%; residual activity (IGF1R (human)): 89.4%; residual activity (OXSR1 (human)): 89.8%; residual activity (CAMKK2 (human)): 105%; residual activity (ULK2 (human)): 103%; residual activity (PBK (human)): 105%
O=C1Nc2ccccc2/C1=C1\Nc2ccccc2\C1=N/O	67.3	56.2	105	90.9	98.7	82.3	65.6	105	94.4	92.9	80.1	83.2	39.3	86% and 90.1%	32.3	57.3	109	86.1	85.9	92.2	residual activity [1]: 63.4%; residual activity (DYRK2 (human)): 79.1%; residual activity (PRKCE (human)): 96.5%; residual activity (CDK4 CCND1 (human)): 70.9%; residual activity (EPHB2 (human)): 83.3%; residual activity (BRAF (human)): 105%; residual activity (CHUK (human)): 97.6%; residual activity (MST1R (human)): 103%; residual activity (ABL2 (human)): 60.3%; residual activity (JAK2 JH1 JH2 (human)): 84.6%; residual activity (PRKX (human)): 88.8%; residual activity (IGF1R (human)): 80.2%; residual activity (OXSR1 (human)): 91.7%; residual activity (CAMKK2 (human)): 66.8%; residual activity (ULK2 (human)): 103%; residual activity (PBK (human)): 89.5%
O=C1NC(=O)C(c2c[nH]c3ccccc23)=C1c1c[nH]c2ccccc12	52.6	95.3	80.8	111	101	103	84.7	145	127	89	100	93.7	95.7	76.8% and 82.4%	124	84.9	102	83.5	88.5	96.9	residual activity [1]: 101%; residual activity (DYRK2 (human)): 97.7%; residual activity (PRKCE (human)): 24%; residual activity (CDK4 CCND1 (human)): 97.4%; residual activity (EPHB2 (human)): 96.9%; residual activity (BRAF (human)): 101%; residual activity (CHUK (human)): 93.4%; residual activity (MST1R (human)): 93.1%; residual activity (ABL2 (human)): 82.3%; residual activity (JAK2 JH1 JH2 (human)): 100%; residual activity (PRKX (human)): 99.5%; residual activity (IGF1R (human)): 80%; residual activity (OXSR1 (human)): 86.3%; residual activity (CAMKK2 (human)): 92.8%; residual activity (ULK2 (human)): 92.9%; residual activity (PBK (human)): 100%
